Several values for one entry are separate records, joined by “and”; a condition that tells them apart may be missing. Identical values can stand only once. Like-named read-outs stand apart in the source and are kept apart here.
Legend:
[1] = patients, ref given per drug, cited from earlier work; for Cmax: read-out: Maximum plasma concentration (Cmax) in patients
ERN1 (IRE1α) = experiment: RT-qPCR ERN1 mRNA in HepaRG cells; type: cell-based, human; conditions: 4 days, vs control
Procedure, shortened: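 DNase-treated total RNA from HepaRG cells reverse-transcribed and quantified by SYBR Green RT-qPCR. Expression normalised to GAPDH and given as relative values by the 2^−ΔΔCt method.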

[2] = tested on: de novo lipogenesis (DNL); experiment: DNL from [2-14C]acetic acid in HepaRG cells; type: cell-based, human; conditions: 4 days, vs control
[3] = treated patients, ref Schulz M et al., Crit Care 2012 ;16(4):R136, cited from earlier work
phospho-IRE1α (Ser724) = experiment: Western blot phospho-IRE1α in HepaRG cells; type: cell-based, human
Protocol: (§1) Cells were lysed in ice-cold CelLytic M buffer (C2978; Sigma Aldrich) containing phosphatase and protease inhibitors from Roche Applied Science (Penzberg, Germany). Protein concentration was determined using the Pierce BCA Protein Assay Kit (Thermo Fisher Scientific) and equal amounts of protein were diluted with NuPAGE LDS Sample Buffer (Thermo Fisher Scientific). Samples (ca. 25 μg of proteins) were then separated by SDS-PAGE using NuPAGE 4–12% Bis-Tris gels (Thermo Fisher Scientific). Proteins were transferred to PVDF membranes (BioRad) and Ponceau S staining was used to confirm equal loading and transfer. Membranes were blocked in 7.5% milk in TBST (10 mM Tris–HCl, 100 mM NaCl, 0.02% Tween 20) for 1 h at room temperature and incubated overnight at 4 °C with antibodies against phospho-IRE1α (Ser724) (Abcam, ab124945), IRE1α (Cell Signaling, 3294), or HSC70 (Santa Cruz, sc-7298), whose dilutions were 1:1000. […] Protein content was quantified by densitometry with ImageJ software (National Institutes of Health, Bethesda, MD).

[4] = tested on: permeabilized HepaRG cells; experiment: Oxygen consumption in permeabilized HepaRG cells (Seahorse); type: cell-based, human; conditions: for EC20 values for inhibition of O2 consumption, Glutamate + malate / EC20 values for inhibition of O2 consumption, Octanoyl-L-carnitine / EC20 values for inhibition of O2 consumption, Palmitoyl-CoA + L-carnitine / EC20 values for inhibition of O2 consumption, Palmitoyl-L-carnitine: state 3, mean ± SD, 2-3 runs
Protocol: Cryopreserved differentiated HepaRG cells (HPR116, Biopredic International) were thawed and seeded at 36,000 cells/well in Seahorse XFe96 cell culture microplate (Agilent) in HepaRG® Thawing/Plating/General Purpose Medium Supplement with antibiotics (Biopredic International) combined with 100 mL of William’s Medium E (Sigma) and incubated at 37 °C with 5% CO2. The day after, medium was replaced by HepaRG Maintenance/Metabolism Medium Supplement with antibiotics (Biopredic International) combined with 100 mL of William’s Medium E. […] Two technical replicates were carried out per condition in two to three independent experimental runs.

[5] = tested on: fatty acid translocase (FAT, also known as CD36); experiment: RT-qPCR FAT/CD36 mRNA in HepaRG cells; type: cell-based, human; conditions: 4 days, vs control
Protocol: Total RNA was extracted with the Nucleospin RNA isolation system purchased from Macherey-Nagel (Düren, Germany), which included a DNase treatment step. Quantification of isolated RNAs was assessed using a Nanodrop 1000 (Thermo Fisher Scientific, Waltham, MA). RNAs were reverse-transcribed into cDNAs using the High-Capacity cDNA Reverse Transcription Kit purchased from Applied Biosystems (Woolston, UK). Gene expression was assessed by real-time quantitative PCR analysis (RT-qPCR) using SYBR Green PCR Master Mix (Applied Biosystems) and a 384-well QuantStudio™ 7 Flex Real-Time PCR System (Thermo Fisher Scientific). Sequences of the primers used to measure gene expression are presented in Supplementary Table 3. Expression of GAPDH was chosen as reference and the 2^−ΔΔCt calculation method was used to express the relative expression of each selected gene.

apoB secretion = experiment: apoB level in culture medium (ELISA), HepaRG cells; type: cell-based, human; conditions: 4 days, culture medium, vs control
IRE1α = experiment: Western blot total IRE1α in HepaRG cells; type: cell-based, human
Protocol: as §1

[6] = Maximum plasma concentration (Cmax) in patients; type: in vivo, human; conditions: worked out from cited Cmax in patients

Row | Concentration corresponding to 100xCmax [6] | SMILES | Maximum plasma concentration (Cmax) in patients [1] | Cmax [1] | ERN1 (IRE1α) mRNA level (ERN1 (IRE1α)) | Effect on DNL [2] | Therapeutic blood (or plasma) concentration in patients ([3]; listed as Indomethacin (INDO)) | Protein level of phospho-IRE1α (pIRE1α) (phospho-IRE1α (Ser724)) | EC20 values for inhibition of O2 consumption, Glutamate + malate [4] | EC20 values for inhibition of O2 consumption, Octanoyl-L-carnitine [4] | EC20 values for inhibition of O2 consumption, Palmitoyl-CoA + L-carnitine [4] | EC20 values for inhibition of O2 consumption, Palmitoyl-L-carnitine [4] | FAT/CD36 mRNA level [5] | Effect on apoB secretion (apoB secretion) | Protein level of total IRE1α (IRE1α) | Therapeutic blood (or plasma) concentration in patients ([3]; listed as Rifampicin (RIF)) | EC20 for inhibition of O2 consumption, all substrates ([4]; all four substrates)
1 | 2200 µM | COc1ccc2c(c1)c(CC(=O)O)c(C)n2C(=O)c1ccc(Cl)cc1 [INDO, indomethacin] | ≤ 8 mg/L | ≤ 22 µM | enhanced IRE1α mRNA level | increased DNL | 0.3 - 1 mg/L and 0.83 - 2.8 µM | increased protein level | 119 ± 20 µM | 150 ± 11 µM | 79 ± 8 µM | 163 ± 26 µM | significantly augmented | reduced the secretion | increased protein level | – | –
2 | 1900 µM | CO[C@H]1/C=C/O[C@@]2(C)Oc3c(C)c(O)c4c(O)c(c(/C=N/N5CCN(C)CC5)c(O)c4c3C2=O)NC(=O)/C(C)=C\C=C\[C@H](C)[C@H](O)[C@@H](C)[C@@H](O)[C@@H](C)[C@H](OC(C)=O)[C@@H]1C [RIF, rifampicin] | ≤ 15.6 mg/L | ≤ 19 µM | enhanced IRE1α mRNA level | curb this metabolic pathway | – | increased protein level | > 200 µM | > 200 µM | > 200 µM | > 200 µM | this effect was not observed | reduced the secretion | increased protein level | 0.1 - 10 mg/L and 0.12 - 12.2 µM | above 200 μM

From publication PMC8012331, “Drug-induced hepatic steatosis in absence of severe mitochondrial dysfunction in HepaRG cells: proof of multiple mechanism-based toxicity” (Cell Biology and Toxicology, 2020)
